Data published in the RepoRT retention time repository (doi:10.1021/acs.analchem.1c00972).

Legend:
[1] = RP, Waters ACQUITY UPLC BEH C18, 100 × 1 mm, 1.7 µm, 50 °C, 0.3 mL/min, estimated dead time 0.17 min; A: water + 10 mM ammonium bicarbonate; B: 10% water + 90% methanol + 10 mM ammonium bicarbonate; gradient (min/%B) 0/0 15/100 21/100 22/0 30/0; conditions: stereoisomer not certain
[2] = RP, Waters ACQUITY UPLC BEH C18, 100 × 1 mm, 1.7 µm, 50 °C, 0.3 mL/min, estimated dead time 0.17 min; A: water + 0.1% formic acid + 20 mM ammonium formate; B: methanol + 0.1% formic acid + 20 mM ammonium formate; gradient (min/%B) 0/0 15/100 21/100 22/0 30/0; conditions: stereoisomer not certain

Structure (SMILES)	LC retention time [1] [min]	LC retention time [2] [min]
CC=C1CC2(CO)OC2(C)C(=O)OCC2=CC[N+]3([O-])CCC(OC1=O)C23 (stereo not drawn) [Erucifoline N-oxide]	6.82	6.51
CC=C1CC2(CO)OC2(C)C(=O)OCC2=CCN3CCC(OC1=O)C23 (stereo not drawn) [Erucifoline]	10.2	6
CCC1OC(=O)C(C)C(OC2CC(C)(OC)C(O)C(C)O2)C(C)C(OC2OC(C)CC(N(C)C)C2O)C(C)(O)CC(C)C(=O)C(C)C(O)C1(C)O (stereo not drawn) [Erythromycin]	15.9	13.2
CCC1COC(Cn2cncn2)(c2ccc(Cl)cc2Cl)O1 (stereo not drawn) [Etaconazole]	15.4	15
CCS(=O)(=O)c1nnc(N(C)C(=O)NC)s1 [Ethidimuron]	8.81	8.76
CCOC(=O)c1ccc(N(C)C)cc1 [Ethyl-4-dimethylaminobenzoate]	14.6	14.3
CCOc1ccc(C(C)(C)COCc2cccc(Oc3ccccc3)c2)cc1 [Etofenprox]	14.1	13.8
CCOc1cc(C(C)(C)C)ccc1C1COC(c2c(F)cccc2F)=N1 (stereo not drawn) [Etoxazole]	17.8	17.4
COC(C)C(O)(C(=O)OCC1=CC[N+]2([O-])CCC(O)C12)C(C)(C)O (stereo not drawn) [Europine N-oxide]	7.37	6.99
COC(C)C(O)(C(=O)OCC1=CCN2CCC(O)C12)C(C)(C)O (stereo not drawn) [Europine]	9.86	6.72
C=C1CC2C(CCC3(C)C(=O)CCC23)C2(C)C=CC(=O)C=C12 (stereo not drawn) [Exemestane]	14.3	14
CCOP(=O)(NC(C)C)Oc1ccc(S(C)(=O)=O)c(C)c1 (stereo not drawn) [Fenamiphos-sulfone]	12.4	12.2
CC(C)OC(=O)C(C)(C)Oc1ccc(C(=O)c2ccc(Cl)cc2)cc1 [Fenofibrate]	17.3	17
CCOC(=O)NCCOc1ccc(Oc2ccccc2)cc1 [Fenoxycarb]	15.6	15.3
COP(=S)(OC)Oc1ccc(S(C)=O)c(C)c1 (stereo not drawn) [Fenthion-sulfoxide]	12.3	12.1
CC(C)(C)NC(=O)C1CCC2C3CCC4NC(=O)C=CC4(C)C3CCC12C (stereo not drawn) [Finasteride]	14.9	14.6
COc1ncc(F)c2nc(S(=O)(=O)Nc3c(F)cccc3F)nn12 [Florasulam]	9	10.5
CCCCOC(=O)C(C)Oc1ccc(Oc2ccc(C(F)(F)F)cn2)cc1 (stereo not drawn) [Fluazifop-butyl]	17.1	16.7
CC1CCc2cc(F)cc3c(=O)c(C(=O)O)cn1c23 (stereo not drawn) [Flumequine]	8.91	11.8
CC1(C)OC2CC3C4CC(F)C5=CC(=O)C=CC5(C)C4C(O)CC3(C)C2(C(=O)CO)O1 (stereo not drawn) [Flunisolide]	13.8	13.6
CC(=O)C1(O)CCC2C3CC(C)C4=CC(=O)C=CC4(C)C3(F)C(O)CC21C (stereo not drawn) [Fluorometholone]	14.1	13.8
OCCN1CCN(CCC=C2c3ccccc3Sc3ccc(C(F)(F)F)cc32)CC1 [Flupentixol]	17.3	14.7

Structure (SMILES)	LC retention time [1] [min]	LC retention time [2] [min]
O=c1c2cc(F)ccc2nc(-n2cncn2)n1-c1ccc(Cl)cc1Cl [Fluquinconazole]	15	14.7
CCC(=O)OC1(C(=O)SCF)C(C)CC2C3CC(F)C4=CC(=O)C=CC4(C)C3(F)C(O)CC21C (stereo not drawn) [Fluticasone propionate]	15.6	15.3
COCCCCC(=NOCCN)c1ccc(C(F)(F)F)cc1 [Fluvoxamine]	15.3	13.5
CCOP(=O)(SC(C)CC)N1CCSC1=O (stereo not drawn) [Fosthiazate]	12.8	12.6
COc1cc2ccc(=O)oc2c(O)c1OC [Fraxidin]	8.22	9.59
CCCCOC(=O)N(C)SN(C)C(=O)Oc1cccc2c1OC(C)(C)C2 [Furathiocarb]	17.1	16.7
O=C1CC2(CCCCC2)CN1 [Gabapentin-Lactam]	11.4	11.3
NCC1(CC(=O)O)CCCCC1 [Gabapentin]	6.17	7.38
CC1COC(=O)c2cc3c(cc21)C(C)(C)C(C)C3(C)C (stereo not drawn) [Galaxolidone]	16.9	16.6
C#CC1(O)C=CC2C3CCC4=CC(=O)CCC4C3CCC21CC (stereo not drawn) [Gestoden]	14.3	14
COc1ccc(Cl)cc1C(=O)NCCc1ccc(S(=O)(=O)NC(=O)NC2CCCCC2)cc1 [Glibenclamide]	13.9	14.9
O=S(=O)(O)ON=C(Cc1c[nH]c2ccccc12)SC1OC(CO)C(O)C(O)C1O (stereo not drawn) [Glucobrassicin]	6.03	6.39
Cc1nccc2c1[nH]c1ccccc12 [Harman]	13.4	9.01
COc1ccc2c(c1)[nH]c1c(C)nccc12 [Harmine]	13.5	9.88
CC1(C)CCC2(C(=O)O)CCC3(C)C(=CCC4C5(C)CCC(O)C(C)(CO)C5CCC43C)C2C1 (stereo not drawn) [Hederagenin]	15.9	17.2
COC(C)C(O)(C(=O)OCC1=CC[N+]2([O-])CCC(O)C12)C(C)C (stereo not drawn) [Heliotrine N-oxide]	8.96	8.36
COC(C)C(O)(C(=O)OCC1=CCN2CCC(O)C12)C(C)C (stereo not drawn) [Heliotrine]	11.6	8.05
COCN(COC)c1nc(N(COC)COC)nc(N(COC)COC)n1 [Hexa(methoxymethyl)melamine]	12.9	12.6
CN(C)c1nc(=O)n(C2CCCCC2)c(=O)n1C [Hexazinone]	11.9	11.7
COC(=O)CC(O)(CCCC(C)(C)O)C(=O)OC1C(OC)=CC23CCCN2CCc2cc4c(cc2C13)OCO4 (stereo not drawn) [Homoharringtonine]	14	9.4
CC=C1C2C=C(C)CC1(N)c1ccc(=O)[nH]c1C2 (stereo not drawn) [Huperzin A]	11.1	7.5
CCN(CCO)CCCC(C)Nc1ccnc2cc(Cl)ccc12 (stereo not drawn) [Hydroxychloroquine]	14.1	7.34

Structure (SMILES)	LC retention time [1] [min]	LC retention time [2] [min]
O=c1c(OC2OC(CO)C(O)C(O)C2O)c(-c2ccc(O)c(O)c2)oc2cc(O)cc(O)c12 (stereo not drawn) [Hyperoside]	6.8	9.67
CCC(C)OC(=O)N1CCCCC1CCO (stereo not drawn) [Icaridin]	14	13.7
Cc1ccc(NC(=O)c2ccc(CN3CCN(C)CC3)cc2)cc1Nc1nccc(-c2cccnc2)n1 [Imatinib]	13.9	11.2
CC(C)C1(C)N=C(c2ncccc2C(=O)O)NC1=O (stereo not drawn) [Imazapyr]	5.24	8.89
CC(C)C1(C)N=C(c2nc3ccccc3cc2C(=O)O)NC1=O (stereo not drawn) [Imazaquin]	9.01	11.8
CCc1cnc(C2=NC(C)(C(C)C)C(=O)N2)c(C(=O)O)c1 (stereo not drawn) [Imazethapyr]	8	11.2
O=[N+]([O-])N=C1NCCN1Cc1ccc(Cl)nc1 [Imidacloprid]	8.74	8.69
CC(C)=CCOc1c2occc2cc2ccc(=O)oc12 [Imperatorin]	14.6	14.3
O=C(Nc1ccc(Cl)cc1C(O)c1ccccc1)c1ccncc1 (stereo not drawn) [Inabenfide]	14.2	13.9
CC(O)C(=O)Nc1c(I)c(C(=O)NC(CO)CO)c(I)c(C(=O)NC(CO)CO)c1I (stereo not drawn) [Iopamidol]	3.64	3.66
Cc1ccc(C(C)NC(=O)C(NC(=O)OC(C)C)C(C)C)cc1 (stereo not drawn) [Iprovalicarb]	15.1	14.8
CC1=CC(=O)CC(C)(C)C1 [Isophorone]	11.9	11.7
CNC(=O)Oc1ccccc1C(C)C [Isoprocarb]	13.1	12.9
CCC(C)(CC)c1cc(NC(=O)c2c(OC)cccc2OC)on1 [Isoxaben]	14.6	14.4
CCOC(=O)C1=NOC(c2ccccc2)(c2ccccc2)C1 [Isoxadifen-ethyl]	15.7	15.4
CCC(C)C1OC2(CCC1C)CC1CC(CC=C(C)C(OC3CC(OC)C(OC4CC(OC)C(O)C(C)O4)C(C)O3)C(C)C=CC=C3COC4C(O)C(C)=CC(C(=O)O1)C34O)O2 (stereo not drawn) [Ivermectin B1a]	19.3	18.8
CC1CC2(OC2C)C(=O)OC2CC[N+]3([O-])CC=C(COC(=O)C1(C)O)C23 (stereo not drawn) [Jacobine N-oxide]	7.35	6.84
CC1CC2(OC2C)C(=O)OC2CCN3CC=C(COC(=O)C1(C)O)C23 (stereo not drawn) [Jacobine]	10.1	6.52
CC1=C2C(=O)C3C(CC=C4CC(O)CCC43C)C2CCC12OC1CC(C)CNC1C2C (stereo not drawn) [Jervine]	15.2	11.7
O=c1c(O)c(-c2ccc(O)cc2)oc2cc(O)cc(O)c12 [Kaempferol]	10.1	12.3
